From article PMC12472621, “Excavating Precursors from Herb Pairs Polygala tenuifolia and Acori tatarinowii: Synthesis and Anticonvulsant Activity Evaluation of 3,4,5-Trimethoxycinnamic Acid (TMCA) Piperazine Amide Derivatives” (Pharmaceuticals, 2025)
Values joined by “and” are separate entries in the source; they are usually repeats but may differ in a detail not shown here. Equal entries are not always repeated. Where two headings read alike, the source gives them in different places.

Tests used:
[1] = test system: maximal electroshock (MES) induced seizures; assay: Maximal electroshock (MES) test; assay type: in vivo, mice; conditions: for responders at 100 mg/kg / ED50: Mus musculus, ip; for ED50: 95% confidence intervals in parentheses
From the text: (§1) Male Kunming mice (23–28 g) were maintained under controlled conditions with ad libitum access to standard pellet diet and water. Test compounds were formulated immediately prior to administration in normal saline containing 0.5% Tween-80. Our experiment was authorized by the Institutional Animal Care and Use Committee of Shaanxi University of Chinese Medicine (animal ethics certificate number: SUCMDL20210309027).
The MES test carried out following the method of Swinyard. A 60 Hz current (50 mA; 0.25 s duration) was delivered via corneal electrodes using a YSD-4G electro convulsion meter (Zhenghua Instruments, Huaibei, China, SN: ZH0056232). […] Test compounds were suspended in an identical vehicle. Protection was defined as abolition of tonic hindlimb extension.

[2] = Acute neurotoxicity screening (rotarod test); assay type: in vivo, mice; conditions: male, Kunming, mouse, in vivo, ip, 30 min post-administration, 95% confidence intervals in parentheses
Procedure: as §1
Neurotoxicity was assessed via a rotarod test. Mice were trained to maintain balance on a rotating rod (diameter: 4 cm; 24 rpm). Trained animals received i.p. injections of test compounds or reference drugs. At 30 min post-administration, neurologic impairment was defined as failure to remain on the rod for 3 min (≥3 falls within the testing period). Data were used to calculate TD50 values.

scPTZ-induced seizures = assay: Pentylenetetrazole (PTZ)-induced seizure test (scPTZ); assay type: in vivo; conditions: 100 mg/kg i.p., PTZ 85 mg/kg s.c., mice
Procedure: as §1
Seizures were induced by subcutaneous (s.c.) administration of PTZ (85 mg/kg in 1% v/v Tween-80/0.9% NaCl), 30 min after compound treatment. This dose produces clonic seizures (≥5 s duration) in 97% of naive mice. Latency to seizure onset was recorded during continuous observation.

LDH enzyme = assay: In vitro LDH assay; assay type: biochemical
Procedure: Employing the commercial LDH enzyme (Solarbio Life Science, Beijing, China, CAS:9001-60-9, Lot. Document No. 14240222001) includes a colorimetric assay kit designed to assess the synthesized substances’ capacity to suppress the LDH enzyme, using established techniques with slight alterations. In summary, a 96-well microplate was filled with 30 μL of LDH enzyme (300 U/mL) and 70 μL of the inhibitor mixture (0.1 mM in final concentration). Following a 10 min pre-incubation process at ambient temperature, […] of NADH (0.2 mM) was introduced. Subsequently, each well received 40 μL of phosphate buffer (20 mM, pH 6.8), reaching a total volume of 250 μL, followed by a 10 min incubation of the assay plate at 28 °C. Subsequently, […] absorbance was gauged at 340 nm utilizing a SpectraMax 190 Absorbance Microplate Reader (Molecular Devices, San Jose, CA, USA). […] In the initial screening, the level of suppression by the test substances was denoted as a percentage (%). The calculation for the LDH inhibition ratio was as follows:Inhibition (%) = [(Asample − Ablank)/Acontrol] × 100%
Asample denotes the OD340 absorbance of test compound and Ablank is the OD340 absorbance for the blank. Acontrol represents the OD340 absorbance of control.

LDH = assay: Immunofluorescence staining for LDH in hippocampus; assay type: in vivo; conditions: hippocampus CA1, PTZ model mice
Procedure: Brain samples were extracted, preserved in 4% paraformaldehyde for a day, and subsequently immersed in a 30% sucrose solution to dehydrate. Post OCT embedding, slices of brain tissue measuring 16 μm in thickness were sliced using a cryostat. Following the permeabilization using 0.5% TritonX-100 and subsequent blocking with 10% goat serum at ambient temperature to remove nonspecific staining, the tissue samples were subjected to overnight incubation at 4 °C with the primary antibody, LDHA (Proteintech (Rosemont, IL, USA), Cat No. 19987-1-AP, Lot: 00106920, rabbit anti-rat 1:200). On the next day, the slides underwent incubation using a secondary antibody. The slides underwent counterstaining using DAPI. […] slices were examined and visualized utilizing the VS200-BU Slide Scanner (Olympus Corporation, Tokyo, Japan).

[3] = test system: PTZ-induced epileptic spikes; assay: Electroencephalogram (EEG) after PTZ; assay type: in vivo, mice; conditions: 100 mg/kg i.p.
From the text: Mice sedated with urethane were subjected to aseptic craniotomy, involving the stereotaxic insertion of cortical screw electrodes aligned with bregma coordinates (anterior–posterior: +3.0 mm; mediolateral: ±1.5 mm) and a reference electrode (anterior–posterior: −2.0 mm; mediolateral: −1.5 mm). The electrodes were secured using dental acrylic, followed by a recovery period of 5–7 days for the animals before the instrumentation. The continuous EEG data were captured through using 8-channel bioamplifiers linked to a PowerLab 8/30 system (AD Instruments, Shanghai, China). After a 30 min acclimatization period in the recording chambers, initial activity levels were documented for 15–20 min. […] After 60 min, pentylenetetrazol (PTZ, 85 mg/kg i.p.) was administered, initiating seizure. Sampling of EEG signals occurred at a frequency of 200 Hz, utilizing a bandpass filter ranging from 0.1 to 60 Hz. Electrographic convulsions were characterized by spikes surpassing double the baseline amplitude, quantified by (1) the delay before the initial spike (seconds after PTZ); (2) the frequency of spikes (counts per 60 s period from the first spike) through established peak-detection methods.

[4] = test system: neurons in CA1 and CA3 regions of the hippocampus; assay: Silver staining of hippocampal tissue; assay type: in vivo; conditions: PTZ model mice, compared with PTZ group
Procedure: Following the creation of the PTZ model, a modified version of the silver impregnation staining technique was applied for silver staining, enabling the observation of changes in neuronal fibers and synapses throughout diseases. Brain tissue slices from each mouse, encased in paraffin, underwent deparaffinization using xylene and absolute ethanol, followed by a treatment in acidic formaldehyde, and then incubation in a glycine–silver mixture. Following the application of a reducing solution for staining, the samples were analyzed using an optical microscope. Against a yellow backdrop, nerve cells’ axons, dendrites, collagen fibers, and neurofibrillary tangles were colored in dark brown or black.

[5] = 100 mg/kg i.p., mice, 0.5 h, read-out: MES model, protected mice/total mice, 0.5 h (converted)
[6] = 100 mg/kg i.p., mice, 1 h, read-out: MES model, protected mice/total mice, 1 h (converted)
[7] = 100 mg/kg i.p., mice, 2 h, read-out: MES model, protected mice/total mice, 2 h (converted)
[8] = 100 mg/kg i.p., mice, 3 h, read-out: MES model, protected mice/total mice, 3 h (converted)

Compound	responders at 100 mg/kg [1, 5] [%]	responders at 100 mg/kg [1, 6] [%]	responders at 100 mg/kg [1, 7] [%]	responders at 100 mg/kg [1, 8] [%]	ED50 ([1]; mice) [mg/kg]	TD50 at 30 min [2] [mg/kg]	SCPTZ Latent Time (100 mg/kg, s) (scPTZ-induced seizures)	SCPTZ Protective Ratio (100 mg/kg) (scPTZ-induced seizures)	LDH Inhibition Ratio (0.1 mM) (LDH enzyme) [%]	other results
COc1cc(/C=C/C(=O)N2CCN(CCCC(=O)N3CCN(C(c4ccc(F)cc4)c4ccc(F)cc4)CC3)CC2)cc(OC)c1OC [A9, (E)-1-(4-(bis(4-fluorophenyl)methyl)piperazin-1-yl)-4-(4-(3-(3,4,5-trimethoxyphenyl)acryloyl)piperazin-1-yl)butan-1-one]	100	75	50	0	37.5	305	204.5 ± 12.6 s	1/4	–	–
COc1cc(/C=C/C(=O)N2CCN(CCCC(=O)N3CCN(c4cccc(Cl)c4Cl)CC3)CC2)cc(OC)c1OC [A12, (E)-1-(4-(2,3-dichlorophenyl)piperazin-1-yl)-4-(4-(3-(3,4,5-trimethoxyphenyl)acryloyl)piperazin-1-yl)butan-1-one]	100	75	75	25	54.7	284	161.5 ± 24.0 s	0/4	41.9 ± 9.2	–
COc1cc(/C=C/C(=O)N2CCN(CCCC(=O)N3CCN(c4ccc(C(F)(F)F)cc4)CC3)CC2)cc(OC)c1OC [A14, (E)-1-(4-(4-(trifluoromethyl)phenyl)piperazin-1-yl)-4-(4-(3-(3,4,5-trimethoxyphenyl)acryloyl)piperazin-1-yl)butan-1-one]	100	100	75	25	52.4	358	233.5 ± 18.3 s	2/4	42.6 ± 7.3	–
COc1cc(/C=C/C(=O)N2CCN(C(=O)CCC(=O)N3CCN(C(c4ccc(F)cc4)c4ccc(F)cc4)CC3)CC2)cc(OC)c1OC [B9, (E)-1-(4-(bis(4-fluorophenyl)methyl)piperazin-1-yl)-4-(4-(3-(3,4,5-trimethoxyphenyl)acryloyl)piperazin-1-yl)butane-1,4-dione]	–	–	–	–	23.6	235	274.3 s and 274.3 ± 17.2 s	3/4	–	responders at 100 mg/kg ([1]; 0.5 h, read-out: MES model, protected mice/total mice, 0.5 h): 100%; responders at 100 mg/kg ([1]; 1 h, read-out: MES model, protected mice/total mice, 1 h): 75%; responders at 100 mg/kg ([1]; 2 h, read-out: MES model, protected mice/total mice, 2 h): 25%; responders at 100 mg/kg ([1]; 3 h, read-out: MES model, protected mice/total mice, 3 h): 0%; LDH immunolabelling intensity (LDH): lower than the values found in the PTZ group; latency to the first PTZ-induced epileptic spike (EEG) ([3]; PTZ 85 mg/kg i.p. after 60 min): extended; spike frequency within 60 s post-initial spike (EEG) ([3]; compared to PTZ controls): significantly reduced; silver staining, neurons in hippocampal CA1 and CA3 [4]: alleviated symptoms
COc1cc(/C=C/C(=O)N2CCN(C(=O)CCC(=O)N3CCN(c4cccc(Cl)c4Cl)CC3)CC2)cc(OC)c1OC [B12, (E)-1-(4-(2,3-dichlorophenyl)piperazin-1-yl)-4-(4-(3-(3,4,5-trimethoxyphenyl)acryloyl)piperazin-1-yl)butane-1,4-dione]	100	75	25	25	60.3	417	230.3 ± 17.4 s	1/4	44.3 ± 6.5	–
COc1cc(/C=C/C(=O)N2CCN(C(=O)CCC(=O)N3CCN(c4ncccn4)CC3)CC2)cc(OC)c1OC [B16, (E)-1-(4-(pyrimidin-2-yl)piperazin-1-yl)-4-(4-(3-(3,4,5-trimethoxyphenyl)acryloyl)piperazin-1-yl)butane-1,4-dione]	75	50	50	0	–	–	–	–	–	–
COc1cc(/C=C/C(=O)N2CCN(C(=O)CCC(=O)N3CCC(c4noc5cc(F)ccc45)CC3)CC2)cc(OC)c1OC [B17, (E)-1-(4-(6-fluorobenzo[d]isoxazol-3-yl)piperidin-1-yl)-4-(4-(3-(3,4,5-trimethoxyphenyl)acryloyl)piperazin-1-yl)butane-1,4-dione]	50	50	25	0	–	–	–	–	–	–
(E)-3-(2,4,5-trimethoxyphenyl)allyl 4-oxo-4-(4-((E)-3-(3,4,5-trimethoxyphenyl)acryloyl)piperazin-1-yl)butanoate [B5]	–	–	–	–	–	–	–	–	–	MES model, protected mice/total mice, 0.5 h ([1]; 100 mg/kg i.p., mice, 0.5 h): 3/4; MES model, protected mice/total mice, 1 h ([1]; 100 mg/kg i.p., mice, 1 h): 3/4; MES model, protected mice/total mice, 2 h ([1]; 100 mg/kg i.p., mice, 2 h): 2/4; MES model, protected mice/total mice, 3 h ([1]; 100 mg/kg i.p., mice, 3 h): 0/4
(E)-3-(2,4,5-trimethoxyphenyl)allyl 4-oxo-4-(4-((E)-3-(3,4,5-trimethoxyphenyl)acryloyl)piperazin-1-yl)butanoate [B6]	–	–	–	–	–	–	–	–	–	MES model, protected mice/total mice, 0.5 h ([1]; 100 mg/kg i.p., mice, 0.5 h): 2/4; MES model, protected mice/total mice, 1 h ([1]; 100 mg/kg i.p., mice, 1 h): 1/4; MES model, protected mice/total mice, 2 h ([1]; 100 mg/kg i.p., mice, 2 h): 1/4; MES model, protected mice/total mice, 3 h ([1]; 100 mg/kg i.p., mice, 3 h): 0/4
